Measurements published in article PMC10009755, “Discovery and Characterization of BAY-805, a Potent and Selective Inhibitor of Ubiquitin-Specific Protease USP21” (Journal of Medicinal Chemistry, 2023).
Where two headings read alike, the source gives them in different places.

Experiments:
USP2 = target: T1, USP2 (Homo sapiens, UniProt O75604); test: hUSP2 Ub-rhodamine 110 assay; assay type: biochemical; conditions: arithmetic means of multiple measurements; read-out: IC50 hUSP2 Ub-Rhod
T1 construct: His tag
T1 sequence (O75604 259-605): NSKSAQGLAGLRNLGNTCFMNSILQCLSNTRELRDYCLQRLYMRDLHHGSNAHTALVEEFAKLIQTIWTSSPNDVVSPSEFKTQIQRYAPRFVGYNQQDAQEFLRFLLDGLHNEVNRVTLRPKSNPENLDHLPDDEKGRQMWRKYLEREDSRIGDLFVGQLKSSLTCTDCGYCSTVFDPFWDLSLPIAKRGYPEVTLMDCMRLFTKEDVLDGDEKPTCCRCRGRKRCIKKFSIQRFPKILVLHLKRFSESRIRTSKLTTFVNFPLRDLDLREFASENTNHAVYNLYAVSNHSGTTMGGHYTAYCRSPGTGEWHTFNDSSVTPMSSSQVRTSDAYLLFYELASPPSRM
Experimental: The final assay volume was 6 μL.

log D measurement (HPLC) = assay type: physicochemical; conditions: reverse-phase HPLC, pH 7.5, pH 7.5, HPLC method; read-out: logD7.5
Experimental: log D values at pH 7.5 were recorded using an indirect method for determining hydrophobicity constants by reverse-phase HPLC. A series of compounds with well-known log D values were used for calibration. Test compounds were injected into the same HPLC system. The lipophilicity of compounds was then assessed by comparison to the calibration curve.

USP21 [1] = target: T2, USP21 (Homo sapiens, UniProt Q9UK80)
T2 sequence (Q9UK80 1-565): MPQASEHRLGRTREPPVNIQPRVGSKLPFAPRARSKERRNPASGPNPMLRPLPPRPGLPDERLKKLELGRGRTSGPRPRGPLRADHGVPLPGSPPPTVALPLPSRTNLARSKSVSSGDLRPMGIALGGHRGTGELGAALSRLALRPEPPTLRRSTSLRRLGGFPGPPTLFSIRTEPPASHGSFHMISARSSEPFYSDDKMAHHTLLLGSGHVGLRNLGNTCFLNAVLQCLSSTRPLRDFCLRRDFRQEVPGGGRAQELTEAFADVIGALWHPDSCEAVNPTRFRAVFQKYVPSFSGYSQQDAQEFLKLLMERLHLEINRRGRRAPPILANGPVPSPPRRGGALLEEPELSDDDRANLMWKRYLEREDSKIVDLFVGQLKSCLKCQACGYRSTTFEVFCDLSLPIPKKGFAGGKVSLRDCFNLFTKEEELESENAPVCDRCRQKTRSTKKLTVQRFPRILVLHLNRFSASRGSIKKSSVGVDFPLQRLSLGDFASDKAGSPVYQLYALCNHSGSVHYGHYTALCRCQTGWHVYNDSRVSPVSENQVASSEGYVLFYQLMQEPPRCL
Experimental: To this end, we developed a USP21 activity assay that is based on the deubiquitination of a STING-derived peptide (a USP21-specific substrate[17],[18]) by purified recombinant human full-length USP21 using time-resolved fluorescence resonance energy transfer (TR-FRET) technology (referred to as a homogeneous time-resolved fluorescence (HTRF)-assay, for details see the Supporting Information).[39]
All substrate and enzyme solutions were diluted in an assay buffer. […] Incubation time was 15–20 min at room temperature. […] The stop solution (DUB inhibitor PR619, Abcam) was prepared in 25 mM HEPES, pH 7.5 (Alfa Aesar) containing 0.01% BSA and then left for 10 min at room temperature before filtering with a 0.2 μM PES Membrane (Thermo Fisher). The reaction was stopped with the addition of 2 μL of 200 μM PR619. […] The plates were measured on the ViewLux in screening or PHERAstar FSX in compound profiling. […] The number of flashes per well was set to 3. All of the experimental data were plotted using Genedata analysis. The Z′-factor and S/B of the assay were >0.7 and ∼2, respectively.

USP21 [2] = target: T2, USP21; remark: listed apart in the source
Experimental: The final assay volume was 6 μL. […] First, 2 μL of 1 nM USP21 (or selectivity enzyme) solution was added to the compound plate and preincubated for 15–20 min at room temperature. […] The reaction was stopped by 50 mM citric acid in 25 mM HEPES, pH 7.5, containing 0.01% BSA. […] The USP21 and USP22 were measured with five flashes and USP2 and USP7 in fly mode.

USP21 [3] = target: T2, USP21; test: Thermal shift assay (TSA); assay type: binding; set-up: purchased Ubiquigent (DUBprofiler service); conditions: 100 μM compound
Experimental: Experiments were carried out with the QuantStudio7 Flex Real-Time PCR system (Thermo Fisher Scientific) in a 384-well plate format with 5 μL of reaction volume. Melting curves were obtained at an USP21 protein concentration of 3.8 μM and 5xSYPRO Orange (Invitrogen) using a buffer containing 20 mM Tris, pH 7.5; 150 mM NaCl; 10% glycerol; and 1.0 mM TCEP. […] For binding experiments, compounds were added from 10 mM stock solution to a final concentration of 100 μM. As a control, 1% DMSO was used. Scans were measured from 25 to 95 °C at a scanning rate of 4 °C/min. All TSA data were analyzed using a Genedata Assay Analyzer.

In the case of `CC(C)C(NC(=O)C1CCCC1)C(=O)Nc1nnc(Cc2ccc([N+](=O)[O-])cc2)s1` (centres unmarked) [Compound 3, CC(C)C(NC(=O)C1CCCC1)C(=O)Nc2nnc(Cc3ccc(cc3)[N+](=O)[O-])s2], the IC50 (USP2) is reported as > 25 µM, the chromatographic logD (log D measurement (HPLC)) is reported as 2.8 and the IC50 (USP21 [1]) is reported as > 25 µM. For the same compound, the IC50 (USP21 [2]) was > 25 µM and the ΔTm at 100 µM (USP21 [3]) was 0.3 °C.
